Laboratory results: patent US9018252B2, “Stable compositions of dehydroascorbic acid” (priority 2010, dated 2015)

Key:
[1] = solid form; cited from earlier work
[2] = test system: HSV-1, influenza virus, poliovirus; conditions: cited from earlier work; for antiviral effects in vitro: viruses such as HSV-1, influenza virus, poliovirus
human skin cells = conditions: cited from earlier work
[3] = DHAA stability testing of ozone-oxidized glycerol/water solutions (Example 1); type: physicochemical
Excerpt: (§1) AA concentration in solution is commonly measured as the reducing activity of the solution using starch-iodine titration methods that are well-known in the art. […] This method is also well known in the art. DHAA in solution can be converted into AA by reducing agents such as dithiothreitol (DTT) or tris(2-carboxyethyl)phosphine (TCEP), and its concentration is commonly measured spectrophotometrically as the difference in absorbance of a solution subjected to reduction by DTT or TCEP versus a similar solution that is not subjected to a reducing agent. These methods are also well-known in the art, but see Deutsch for examples. In the description, claims, and the following examples, DHAA in the compositions of the invention is the vitamin C that can be measured by the difference in absorbance at 262 nm using TCEP reducing agent.
A 15% AA solution in water was prepared by adding 15 grams AA per 100 mL purified water with stirring. A 15% solution of AA in glycerol was prepared by adding 15 grams AA per 100 mL pure USP glycerol and stirring with heat. A corona-discharge type ozone generator with feed-gas of pure oxygen was used to supply an oxidizing gas containing about 5% ozone, and each of the 15% AA solutions was subjected to oxidizing conditions by bubbling the oxidizing gas through the solution using a glass diffuser. The progress of AA oxidation in each solution was monitored by the disappearance of reducing activity as measured by starch-iodine titration. Each solution was subjected to the oxidizing conditions until all (>99%) of the original reducing activity had disappeared. The solution made with pure glycerol was labeled “100% Glycerol,” and the solution made with purified water was labeled “100% Water.” Portions of these two solutions were combined to produce solutions of various glycerol concentrations by weight, specifically “99% Glycerol,” “98% Glycerol,” “97% Glycerol,” “96% Glycerol,” “95% Glycerol”, “90% Glycerol,” and “50% Glycerol.” For example, 99 parts by weight of “100% Glycerol” was combined with 1 part by weight “100% Water” to produce the “99% Glycerol” solution.
Aliquots of each of the solutions prepared above were placed in translucent, screw-capped polyethylene vials and were stored at room temperature. No attempt was made to further protect the vials from ambient indoor light, and each vial contained a headspace of normal air. Each vial was periodically opened to remove a sample for stability testing over the next 229 days. The concentration of DHAA in each sample was measured by spectrometry on each testing day. The initial DHAA concentration of each solution on Day 1 was recorded and assigned a value of 100%, and the concentration on each subsequent stability test day was calculated as the percent remaining of the initial concentration.

[4] = DHAA stability testing of glycerol solution oxidized with activated charcoal and oxygen (Example 2); type: physicochemical; conditions: "100% Glycerol", activated charcoal/oxygen oxidation, room temperature, 191 days
Excerpt: as §1
A solution of AA in pure USP glycerol was subjected to oxidizing conditions by suspending activated charcoal in the solution and then bubbling pure oxygen through the solution. Oxidation of AA during this process was monitored by starch-iodine titration. After the desired amount of AA had been oxidized, the activated charcoal was removed from the solution by centrifugation and filtration. […] The concentration of DHAA in the sample was measured by spectrometry on each testing day. […]

[5] = Absorption of AA and DHAA into skin of human volunteers after topical application (Example 5); type: in vivo; conditions: 1.4 mg/cm^2, after 4 hours
Description: This solution was applied topically to the skin of human volunteers to compare the absorption rate of AA versus DHAA. To assess permeation into the stratum corneum, the solution was diluted 1:1 with water and applied at a rate of 1.4 mg/cm^2 to delineated skin surfaces and allowed 0, 2 or 4 hours for absorption. Each skin surface was then washed with deionized water, and the skin washings were collected and measured for AA and DHAA content. The amount absorbed at 2 and 4 hours was determined by subtraction from the amount present in the 0 hour washings.
Data points are the mean+/−SD of triplicate analyses on 4 subjects. The 2 and 4 hour values are the difference as percentage from the 0 hour (baseline) values, determined by analysis of skin washings. It can be seem that after 4 hours DHAA had absorbed into the skin at a rate about 12 times greater than AA, and that the total vitamin C content of the skin was increased at a much more rapid rate than applying AA alone. (Asterisks on FIG. 21 indicate the following: * Statistically significant at P<0.05. ** Statistically significant at P<0.01).

[6] = DHAA stability in polyol solutions (general statements); type: physicochemical
[7] = DHAA stability testing of propylene glycol/water solutions oxidized with Fenton's Reagent (Example 3); type: physicochemical; conditions: room temperature
Excerpt: as §1
AA was dissolved in purified water to give a highly concentrated solution, and then sufficient 30% hydrogen peroxide was added to oxidize about half of the AA. Iron to catalyze the reaction was provided by addition of ferrous sulfate. Oxidation of the AA was monitored by spectrometry until the expected amount of AA had been oxidized. This solution was labeled “100% Water.” Portions of this solution were combined with portions of pure, USP grade propylene glycol to produce solutions of “97% Propylene Glycol,” “95% Propylene Glycol,” “90% Propylene Glycol,” “80% Propylene Glycol,” “70% Propylene Glycol,” and “50% Propylene Glycol.” For example, 3 parts by volume of the “100% Water” solution were combined with 97 parts by volume propylene glycol to yield the “97% Propylene Glycol” solution.
(§2) Aliquots of each of the solutions prepared above were placed in translucent, screw-capped polyethylene vials and were stored at room temperature. […] The concentration of DHAA in each sample was measured by spectrometry on each testing day. The initial DHAA concentration of each solution was recorded and assigned a value of 100% (Day 0), and the concentration on each subsequent stability test day was calculated as the percent remaining of the initial concentration.

[8] = DHAA stability testing of solutions with various AA:DHAA ratios (Example 4); type: physicochemical
Excerpt: AA concentration in solution is commonly measured as the reducing activity of the solution using starch-iodine titration methods that are well-known in the art. […] This method is also well known in the art. DHAA in solution can be converted into AA by reducing agents such as dithiothreitol (DTT) or tris(2-carboxyethyl)phosphine (TCEP), and its concentration is commonly measured spectrophotometrically as the difference in absorbance of a solution subjected to reduction by DTT or TCEP versus a similar solution that is not subjected to a reducing agent. These methods are also well-known in the art, but see Deutsch for examples. In the description, claims, and the following examples, DHAA in the compositions of the invention is the vitamin C that can be measured by the difference in absorbance at 262 nm using TCEP reducing agent. […]
as §2, with “transparent,” for “translucent,”, “glass” for “polyethylene”

SMILES | ease of dissolving the solid in water, AA compared with DHAA [1] | antiviral effects in vitro [2] | level absorbed into cells, DHAA relative to AA (human skin cells) [times] | speed of absorption into cells, DHAA relative to AA (human skin cells) | DHAA stability compared with water ([3]; 50% glycerol concentration, room temperature) | initial amount of DHAA remaining ([3]; "100% Water" solution, room temperature, tested at 20 days) | initial DHAA concentration remaining ([3]; pure glycerol ("100% Glycerol"), approximately 8 months of storage at room temperature) | DHAA stability ([3]; solutions containing high concentrations of glycerol, room temperature, up to 229 days) | DHAA stability [4] | rate of absorption into the skin, DHAA relative to AA [5] | antiviral effects of DHAA compared with AA ([2]; in vitro) | DHAA stability ([6]; polyol solutions with high water content (water to glycol/polyol at least 1:1)) | DHAA stability ([6]; pure polyol solvents and solutions with polyol content greater than about 50 percent) | initial amount of DHAA remaining ([7]; "100% Water" solution (Fenton's Reagent), after 5 days) | DHAA concentration over time ([7]; many of the propylene glycol solutions, 31 days) | DHAA stability ([7]; solutions containing high concentrations of propylene glycol, 31 days) | initial amount of DHAA remaining ([8]; "Control": 100% water, initial AA:DHAA about 1:1, room temperature, after 3 days) | DHAA stability ([8]; polyol (100% glycerin) solutions with AA:DHAA ratios between 2:1 and 99:1, room temperature, 30 days)
O=C1O[C@H]([C@@H](O)CO)C(O)=C1O [AA, ascorbic acid] | far more easily dissolved | antiviral effects | – | – | – | – | – | – | – | – | – | – | – | – | – | – | – | –
O=C1O[C@H]([C@@H](O)CO)C(=O)C1=O [DHAA, dehydroascorbic acid] | – | antiviral effects | 2 | up to 5 times | only minor improvement | less than 10% | greater than 80% | preserved very well | excellent long-term stability | about 12 times | much stronger | not stable | stable | less than 20% | increased significantly | preserved very well | less than 20% | preserved very well
